Assay results from patent publication US20180282260A1, “1-AMINOCYCLOPROPANE-1-CARBOXYLIC ACID POLYMORPHS” (Valent BioSciences LLC, priority 2017, published 2018).

Key:
cotton cotyledons = assay: Cotton cotyledon bioefficacy assay (ethylene production by gas chromatography); type: in vivo; settings: for Ethylene production in cotton cotyledons, average: Average of trials, 500 ppm ACC, 48 hours after application; for Ethylene production in cotton cotyledons: 500 ppm ACC sprayed on 10-day old cotyledons, removed 48 hours after application, incubated 4 to 7 hours
Procedure: The ACC anhydrate from Chem-Impex International, Inc., an ACC anhydrate prepared by Inogent Laboratories of India and the ACC trihydrate of the present invention were each dissolved with water to 500 ppm w!w of ACC and applied separately to individual sets of 10-day old cotton cotyledons by a hand sprayer in 4 separate trials. 48 hours after application the cotyledons were removed and incubated in sealed vials for 4 to 7 hours. Following incubation, the cotyledons were measured for ethylene gas production by gas chromatography.

[1] = Crystal form stability under high humidity; type: physicochemical

Row | SMILES | Ethylene production in cotton cotyledons, average (cotton cotyledons) [nL C2H4/g/hr] | Ethylene production in cotton cotyledons (cotton cotyledons; Trial 1) [nL C2H4/g/hr] | Ethylene production in cotton cotyledons (cotton cotyledons; Trial 2) [nL C2H4/g/hr] | Ethylene production in cotton cotyledons (cotton cotyledons; Trial 3) [nL C2H4/g/hr] | Ethylene production in cotton cotyledons (cotton cotyledons; Trial 4) [nL C2H4/g/hr] | Ethylene production in cotton cotyledons, average (cotton cotyledons; trihydrate) [nL C2H4/g/hr] | Ethylene production in cotton cotyledons (cotton cotyledons; Trial 1, trihydrate) [nL C2H4/g/hr] | Ethylene production in cotton cotyledons (cotton cotyledons; Trial 2, trihydrate) [nL C2H4/g/hr] | Ethylene production in cotton cotyledons (cotton cotyledons; Trial 3, trihydrate) [nL C2H4/g/hr] | Ethylene production in cotton cotyledons (cotton cotyledons; Trial 4, trihydrate) [nL C2H4/g/hr] | Stability of crystal form [1]
1 | NC1(C(=O)O)CC1 [Chem-Impex Anhydrate, 1-aminocyclopropane-1-carboxylic acid anhydrate] | 25.66 | 28.14 | 23.18 |  |  |  |  |  |  |  | 
2 | NC1(C(=O)O)CC1 [Inogent Anhydrate] | 20.07 | 25.00 | 20.33 | 17.53 | 17.43 |  |  |  |  |  | 
3 | NC1(C(=O)O)CC1 [Trihydrate, 1-aminocyclopropane-1-carboxylic acid trihydrate] |  |  |  |  |  | 22.71 | 15.06 | 22.04 | 36.30 | 17.46 | most stable crystal form of ACC under high humidity
